Measured values from ChEMBL document CHEMBL2417402, “Development and therapeutic implications of selective histone deacetylase 6 inhibitors” (J Med Chem, 2013).

Key:
[1] = target: T1, Protein deacetylase HDAC6 (Homo sapiens, UniProt Q9UBN7); assay: Inhibition of HDAC6 (unknown origin)
T1 sequence (Q9UBN7 whole entry): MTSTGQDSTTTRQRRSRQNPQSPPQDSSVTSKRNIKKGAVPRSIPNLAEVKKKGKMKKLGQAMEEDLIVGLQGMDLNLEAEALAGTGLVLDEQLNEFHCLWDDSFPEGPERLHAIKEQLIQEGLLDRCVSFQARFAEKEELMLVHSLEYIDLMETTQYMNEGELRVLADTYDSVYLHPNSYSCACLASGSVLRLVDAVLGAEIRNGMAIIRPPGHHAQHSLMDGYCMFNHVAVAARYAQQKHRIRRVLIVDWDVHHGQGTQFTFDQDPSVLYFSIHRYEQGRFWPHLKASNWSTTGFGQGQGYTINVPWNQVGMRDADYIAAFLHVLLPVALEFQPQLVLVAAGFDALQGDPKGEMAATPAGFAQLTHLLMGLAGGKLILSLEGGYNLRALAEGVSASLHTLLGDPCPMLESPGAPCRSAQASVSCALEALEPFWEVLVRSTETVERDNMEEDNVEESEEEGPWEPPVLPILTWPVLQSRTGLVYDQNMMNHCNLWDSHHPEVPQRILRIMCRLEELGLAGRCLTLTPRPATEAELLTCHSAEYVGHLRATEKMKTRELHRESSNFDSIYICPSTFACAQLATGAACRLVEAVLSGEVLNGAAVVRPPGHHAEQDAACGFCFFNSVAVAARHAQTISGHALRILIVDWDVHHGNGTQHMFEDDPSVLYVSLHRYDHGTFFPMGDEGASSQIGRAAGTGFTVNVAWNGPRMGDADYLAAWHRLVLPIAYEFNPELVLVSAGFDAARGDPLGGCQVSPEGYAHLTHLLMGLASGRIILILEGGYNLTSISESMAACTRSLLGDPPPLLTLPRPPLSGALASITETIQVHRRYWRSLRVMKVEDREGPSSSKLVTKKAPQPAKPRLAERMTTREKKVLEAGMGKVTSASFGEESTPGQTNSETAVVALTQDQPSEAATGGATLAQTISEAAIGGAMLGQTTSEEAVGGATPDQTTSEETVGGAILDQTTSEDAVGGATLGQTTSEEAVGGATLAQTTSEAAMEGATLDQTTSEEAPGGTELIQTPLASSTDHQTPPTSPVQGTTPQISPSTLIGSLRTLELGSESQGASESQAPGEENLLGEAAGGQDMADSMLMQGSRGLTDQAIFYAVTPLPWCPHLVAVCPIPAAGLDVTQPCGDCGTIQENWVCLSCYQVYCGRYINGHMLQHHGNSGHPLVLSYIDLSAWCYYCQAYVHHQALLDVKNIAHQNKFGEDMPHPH

Histone deacetylase 1 [2] = target: T2, Histone deacetylase 1 (Homo sapiens, UniProt Q13547); assay: Inhibition of HDAC1 (unknown origin)
Histone deacetylase 2 [3] = target: T3, Histone deacetylase 2 (Homo sapiens, UniProt Q92769); assay: Inhibition of His-6-tagged full length HDAC2 (unknown origin) expressed in sf9 cells using carboxyfluorescein (FAM)-labeled acetylated peptide as substrate after 17 hrs by fluorescence-based electrophoretic assay
[4] = target: T1, Protein deacetylase HDAC6; assay: Inhibition of His-6-tagged full length HDAC6 (unknown origin) expressed in sf9 cells using carboxyfluorescein (FAM)-labeled acetylated peptide as substrate after 17 hrs by fluorescence-based electrophoretic assay
Histone deacetylase 3 [5] = target: T4, Histone deacetylase 3 (Homo sapiens, UniProt O15379); assay: Inhibition of His-6-tagged full length HDAC3 (unknown origin) expressed in sf9 cells and co-expressed in SMRT gene (395 to 489) using carboxyfluorescein (FAM)-labeled acetylated peptide as substrate after 17 hrs by fluorescence-based electrophoretic assay
Histone deacetylase 8 [6] = target: T5, Histone deacetylase 8 (Homo sapiens, UniProt Q9BY41); assay: Inhibition of His-6-tagged full length HDAC8 (unknown origin) expressed in sf9 cells using carboxyfluorescein (FAM)-labeled acetylated peptide as substrate after 17 hrs by fluorescence-based electrophoretic assay
T5 sequence (Q9BY41 whole entry): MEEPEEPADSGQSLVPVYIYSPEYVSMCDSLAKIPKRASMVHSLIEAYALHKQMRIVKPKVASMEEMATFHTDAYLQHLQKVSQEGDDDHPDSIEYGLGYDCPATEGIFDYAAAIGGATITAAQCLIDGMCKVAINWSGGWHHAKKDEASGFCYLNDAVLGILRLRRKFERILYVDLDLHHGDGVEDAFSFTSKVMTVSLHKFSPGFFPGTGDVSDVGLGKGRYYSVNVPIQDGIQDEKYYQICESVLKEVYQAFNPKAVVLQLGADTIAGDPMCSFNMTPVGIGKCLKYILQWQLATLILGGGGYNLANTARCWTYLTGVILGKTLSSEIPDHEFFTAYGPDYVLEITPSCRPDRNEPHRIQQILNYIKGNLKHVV

Histone deacetylase 1 [7] = target: T2, Histone deacetylase 1; assay: Inhibition of His-6-tagged full length HDAC1 (unknown origin) expressed in sf9 cells using carboxyfluorescein (FAM)-labeled acetylated peptide as substrate after 17 hrs by fluorescence-based electrophoretic assay
[8] = target: T6, Polyamine deacetylase HDAC10 (Homo sapiens, UniProt Q969S8); assay: Inhibition of C-terminal deleted 38 amino acids (632 to 669) HDAC10 (unknown origin) expressed in sf9 cells using carboxyfluorescein (FAM)-labeled acetylated peptide as substrate after 17 hrs by fluorescence-based electrophoretic assay
T6 sequence (Q969S8 whole entry): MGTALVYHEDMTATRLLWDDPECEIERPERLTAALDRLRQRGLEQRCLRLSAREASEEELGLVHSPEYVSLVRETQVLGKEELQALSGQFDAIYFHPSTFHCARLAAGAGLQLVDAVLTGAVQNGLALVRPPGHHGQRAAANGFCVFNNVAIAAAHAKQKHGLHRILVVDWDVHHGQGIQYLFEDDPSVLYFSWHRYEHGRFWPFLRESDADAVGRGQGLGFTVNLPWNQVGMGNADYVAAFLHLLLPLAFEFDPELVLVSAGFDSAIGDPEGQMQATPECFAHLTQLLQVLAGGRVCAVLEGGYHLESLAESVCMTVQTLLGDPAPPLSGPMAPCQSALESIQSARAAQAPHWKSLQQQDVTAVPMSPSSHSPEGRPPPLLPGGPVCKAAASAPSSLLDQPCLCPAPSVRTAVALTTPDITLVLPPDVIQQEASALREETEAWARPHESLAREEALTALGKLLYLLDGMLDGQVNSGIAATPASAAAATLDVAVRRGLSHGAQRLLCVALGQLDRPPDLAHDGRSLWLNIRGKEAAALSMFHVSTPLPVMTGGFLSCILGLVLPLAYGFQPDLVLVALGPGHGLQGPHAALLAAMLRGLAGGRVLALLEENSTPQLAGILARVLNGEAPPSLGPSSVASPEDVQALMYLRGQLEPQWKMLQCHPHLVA

Histone deacetylase 8 [9] = target: T5, Histone deacetylase 8; assay: Inhibition of HDAC8 (unknown origin); conditions: read-out: Kd(app)
Histone deacetylase 3 [10] = target: T4, Histone deacetylase 3; assay: Inhibition of HDAC3 (unknown origin)
[11] = target: T6, Polyamine deacetylase HDAC10; assay: Inhibition of HDAC10 (unknown origin); conditions: read-out: Kd(app)
Histone deacetylase 2 [12] = target: T3, Histone deacetylase 2; assay: Inhibition of HDAC2 (unknown origin)
Histone deacetylase 5 = Histone deacetylase 5 (Homo sapiens, UniProt Q9UQL6); assay: Inhibition of HDAC5 (unknown origin)
Histone deacetylase 7 = target: T7, Histone deacetylase 7 (Homo sapiens, UniProt Q8WUI4); assay: Inhibition of HDAC7 (unknown origin)
T7 sequence (Q8WUI4 whole entry): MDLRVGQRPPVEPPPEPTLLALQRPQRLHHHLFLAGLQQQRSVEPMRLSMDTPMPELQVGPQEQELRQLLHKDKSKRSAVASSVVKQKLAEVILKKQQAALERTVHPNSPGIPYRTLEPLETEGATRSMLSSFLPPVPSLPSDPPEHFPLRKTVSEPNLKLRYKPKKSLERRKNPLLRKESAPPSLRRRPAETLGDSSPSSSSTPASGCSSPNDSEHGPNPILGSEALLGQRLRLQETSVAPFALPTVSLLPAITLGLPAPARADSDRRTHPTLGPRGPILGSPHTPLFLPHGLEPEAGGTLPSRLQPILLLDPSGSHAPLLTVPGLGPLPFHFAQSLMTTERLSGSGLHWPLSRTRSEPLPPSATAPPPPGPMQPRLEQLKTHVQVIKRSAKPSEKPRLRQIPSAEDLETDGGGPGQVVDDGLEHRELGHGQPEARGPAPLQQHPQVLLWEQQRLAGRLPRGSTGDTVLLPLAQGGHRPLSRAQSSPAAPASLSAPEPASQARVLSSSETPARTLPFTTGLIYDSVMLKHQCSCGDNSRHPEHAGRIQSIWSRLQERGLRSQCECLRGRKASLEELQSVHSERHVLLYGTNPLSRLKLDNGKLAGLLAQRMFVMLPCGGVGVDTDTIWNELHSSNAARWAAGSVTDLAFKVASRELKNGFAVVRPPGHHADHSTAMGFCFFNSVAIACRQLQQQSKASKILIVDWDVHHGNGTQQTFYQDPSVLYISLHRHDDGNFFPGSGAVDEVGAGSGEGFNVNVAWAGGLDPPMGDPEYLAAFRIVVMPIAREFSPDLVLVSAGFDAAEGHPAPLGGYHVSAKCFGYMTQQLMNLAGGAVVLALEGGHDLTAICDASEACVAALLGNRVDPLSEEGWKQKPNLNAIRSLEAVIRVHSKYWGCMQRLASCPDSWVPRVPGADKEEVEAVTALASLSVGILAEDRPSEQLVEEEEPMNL

Histone deacetylase 11 = target: T8, Histone deacetylase 11 (Homo sapiens, UniProt Q96DB2); assay: Inhibition of HDAC11 (unknown origin)
T8 sequence (Q96DB2 whole entry): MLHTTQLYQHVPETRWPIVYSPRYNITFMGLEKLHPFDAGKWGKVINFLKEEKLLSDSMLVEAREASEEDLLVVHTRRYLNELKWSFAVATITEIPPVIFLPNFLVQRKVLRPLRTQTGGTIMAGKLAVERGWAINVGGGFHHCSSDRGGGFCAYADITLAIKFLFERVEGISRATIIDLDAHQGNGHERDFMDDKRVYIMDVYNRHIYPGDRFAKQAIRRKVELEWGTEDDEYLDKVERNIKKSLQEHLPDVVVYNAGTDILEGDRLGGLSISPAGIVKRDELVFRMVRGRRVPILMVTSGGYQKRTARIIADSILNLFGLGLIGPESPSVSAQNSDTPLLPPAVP

Histone deacetylase 4 = Histone deacetylase 4 (Homo sapiens, UniProt P56524); assay: Inhibition of HDAC4 (unknown origin)
Histone deacetylase 6 = target: T9, Histone deacetylase 6 (Rattus norvegicus, UniProt Q99P97); assay: Inhibition of FLAG-tagged HDAC6 in rat liver extract using alpha-Ac tubulin as substrate
T9 sequence (Q99P97 whole entry): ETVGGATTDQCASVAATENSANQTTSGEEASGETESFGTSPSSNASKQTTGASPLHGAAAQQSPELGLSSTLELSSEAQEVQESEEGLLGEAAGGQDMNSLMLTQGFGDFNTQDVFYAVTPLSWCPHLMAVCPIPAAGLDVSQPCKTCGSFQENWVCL

Histone deacetylase 1 [13] = target: Histone deacetylase 1 (Rattus norvegicus, UniProt Q4QQW4); assay: Inhibition of FLAG-tagged HDAC1 in rat liver extract using fluorescent small molecule as substrate
Sequence of Histone deacetylase 1 (Rattus norvegicus, UniProt Q4QQW4) (Q4QQW4 whole entry): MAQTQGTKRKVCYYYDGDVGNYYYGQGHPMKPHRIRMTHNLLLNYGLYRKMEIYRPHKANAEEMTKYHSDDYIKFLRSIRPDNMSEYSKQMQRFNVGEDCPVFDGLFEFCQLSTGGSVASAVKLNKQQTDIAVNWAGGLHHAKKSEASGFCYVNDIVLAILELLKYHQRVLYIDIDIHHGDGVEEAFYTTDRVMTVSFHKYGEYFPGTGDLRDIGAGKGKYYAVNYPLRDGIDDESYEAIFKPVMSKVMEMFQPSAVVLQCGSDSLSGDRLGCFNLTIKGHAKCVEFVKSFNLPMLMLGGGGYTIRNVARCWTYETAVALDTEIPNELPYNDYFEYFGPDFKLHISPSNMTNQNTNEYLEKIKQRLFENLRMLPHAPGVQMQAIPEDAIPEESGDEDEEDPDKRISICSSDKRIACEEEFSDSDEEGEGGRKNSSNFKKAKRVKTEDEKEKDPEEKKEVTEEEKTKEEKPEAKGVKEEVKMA

T3 sequence (Q92769 whole entry): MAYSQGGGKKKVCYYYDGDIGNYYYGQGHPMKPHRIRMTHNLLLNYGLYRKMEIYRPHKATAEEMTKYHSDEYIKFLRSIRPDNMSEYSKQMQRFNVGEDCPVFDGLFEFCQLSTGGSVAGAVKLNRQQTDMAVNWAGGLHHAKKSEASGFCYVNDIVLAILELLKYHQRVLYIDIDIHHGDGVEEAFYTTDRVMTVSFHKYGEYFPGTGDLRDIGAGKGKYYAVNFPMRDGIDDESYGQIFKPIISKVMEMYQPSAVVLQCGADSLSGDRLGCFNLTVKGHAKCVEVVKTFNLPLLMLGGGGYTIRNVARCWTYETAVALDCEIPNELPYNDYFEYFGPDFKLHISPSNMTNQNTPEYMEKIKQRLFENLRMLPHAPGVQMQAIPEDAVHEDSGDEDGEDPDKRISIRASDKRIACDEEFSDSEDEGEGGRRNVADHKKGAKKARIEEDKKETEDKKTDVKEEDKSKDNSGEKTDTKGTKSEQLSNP
T4 sequence (O15379 whole entry): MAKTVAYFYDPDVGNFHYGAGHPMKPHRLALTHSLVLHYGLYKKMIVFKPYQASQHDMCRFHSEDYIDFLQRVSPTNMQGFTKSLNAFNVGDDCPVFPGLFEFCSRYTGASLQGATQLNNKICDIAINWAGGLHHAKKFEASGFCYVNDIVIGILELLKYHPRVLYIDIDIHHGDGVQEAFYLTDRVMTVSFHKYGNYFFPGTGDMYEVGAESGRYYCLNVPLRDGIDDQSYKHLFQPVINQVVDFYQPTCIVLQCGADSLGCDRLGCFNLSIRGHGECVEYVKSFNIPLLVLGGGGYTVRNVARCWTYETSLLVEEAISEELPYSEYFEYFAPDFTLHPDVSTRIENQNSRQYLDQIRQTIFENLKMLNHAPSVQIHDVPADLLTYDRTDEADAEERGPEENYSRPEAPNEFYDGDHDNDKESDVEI
T2 sequence (Q13547 whole entry): as the sequence (Q4QQW4 whole entry) above, with K8R, E399D, D424E, M481L counted along it
Sequence of Histone deacetylase 5 (Q9UQL6 whole entry): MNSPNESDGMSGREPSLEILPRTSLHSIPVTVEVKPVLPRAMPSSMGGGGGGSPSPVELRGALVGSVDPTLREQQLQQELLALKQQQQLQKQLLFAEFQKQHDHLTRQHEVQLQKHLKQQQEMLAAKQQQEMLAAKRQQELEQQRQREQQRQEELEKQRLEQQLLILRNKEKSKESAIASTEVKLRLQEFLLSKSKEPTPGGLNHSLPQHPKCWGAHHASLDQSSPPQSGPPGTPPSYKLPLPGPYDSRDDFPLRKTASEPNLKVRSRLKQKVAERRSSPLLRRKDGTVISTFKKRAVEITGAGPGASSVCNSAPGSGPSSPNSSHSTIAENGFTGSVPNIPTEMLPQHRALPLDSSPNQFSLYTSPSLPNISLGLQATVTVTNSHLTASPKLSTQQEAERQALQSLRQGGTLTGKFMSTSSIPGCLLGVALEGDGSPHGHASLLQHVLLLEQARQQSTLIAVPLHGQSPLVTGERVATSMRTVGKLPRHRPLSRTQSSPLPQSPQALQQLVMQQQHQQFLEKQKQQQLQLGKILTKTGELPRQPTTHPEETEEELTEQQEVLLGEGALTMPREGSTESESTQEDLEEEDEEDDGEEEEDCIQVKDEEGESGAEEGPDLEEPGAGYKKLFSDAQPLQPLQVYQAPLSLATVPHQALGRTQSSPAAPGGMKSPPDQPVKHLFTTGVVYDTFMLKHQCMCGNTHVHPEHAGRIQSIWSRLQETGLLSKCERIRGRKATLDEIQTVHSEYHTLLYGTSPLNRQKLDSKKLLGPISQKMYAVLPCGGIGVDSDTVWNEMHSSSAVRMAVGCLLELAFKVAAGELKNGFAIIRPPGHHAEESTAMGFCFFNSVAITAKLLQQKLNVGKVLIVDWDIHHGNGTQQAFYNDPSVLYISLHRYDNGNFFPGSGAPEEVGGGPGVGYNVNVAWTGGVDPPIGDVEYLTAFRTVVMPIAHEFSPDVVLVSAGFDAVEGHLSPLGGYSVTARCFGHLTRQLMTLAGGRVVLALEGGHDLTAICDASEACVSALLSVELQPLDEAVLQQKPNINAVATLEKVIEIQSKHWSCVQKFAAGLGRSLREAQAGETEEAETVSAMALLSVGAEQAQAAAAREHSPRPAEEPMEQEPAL
Sequence of Histone deacetylase 4 (P56524 whole entry): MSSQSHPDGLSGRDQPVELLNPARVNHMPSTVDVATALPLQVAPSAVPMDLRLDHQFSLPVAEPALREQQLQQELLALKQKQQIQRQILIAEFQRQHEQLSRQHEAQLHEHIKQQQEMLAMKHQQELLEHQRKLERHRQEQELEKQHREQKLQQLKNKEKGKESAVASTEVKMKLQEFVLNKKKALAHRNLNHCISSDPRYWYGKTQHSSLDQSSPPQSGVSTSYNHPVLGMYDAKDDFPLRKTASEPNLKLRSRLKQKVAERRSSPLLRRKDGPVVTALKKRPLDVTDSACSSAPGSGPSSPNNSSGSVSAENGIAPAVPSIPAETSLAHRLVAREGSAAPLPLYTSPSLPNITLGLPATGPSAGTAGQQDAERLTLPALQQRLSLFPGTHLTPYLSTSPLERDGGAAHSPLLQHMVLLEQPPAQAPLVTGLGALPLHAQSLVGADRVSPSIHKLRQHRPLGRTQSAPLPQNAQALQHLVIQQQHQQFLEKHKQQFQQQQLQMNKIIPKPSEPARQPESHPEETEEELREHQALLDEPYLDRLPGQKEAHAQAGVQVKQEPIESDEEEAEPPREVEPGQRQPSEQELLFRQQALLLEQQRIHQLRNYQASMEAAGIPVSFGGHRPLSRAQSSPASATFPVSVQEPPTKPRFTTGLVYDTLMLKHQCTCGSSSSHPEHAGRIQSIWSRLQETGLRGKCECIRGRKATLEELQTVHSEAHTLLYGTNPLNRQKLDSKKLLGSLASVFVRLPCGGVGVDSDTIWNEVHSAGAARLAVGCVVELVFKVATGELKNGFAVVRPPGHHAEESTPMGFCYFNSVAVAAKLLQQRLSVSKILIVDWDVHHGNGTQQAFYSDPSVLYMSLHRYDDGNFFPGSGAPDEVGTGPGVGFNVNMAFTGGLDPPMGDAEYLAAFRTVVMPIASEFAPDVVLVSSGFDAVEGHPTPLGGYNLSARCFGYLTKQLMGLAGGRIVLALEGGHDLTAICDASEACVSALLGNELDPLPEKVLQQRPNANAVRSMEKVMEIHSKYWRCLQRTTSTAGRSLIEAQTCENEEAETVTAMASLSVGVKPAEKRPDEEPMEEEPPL

COC(=O)[C@@H](Cc1ccccn1)NC(=O)CCCCCCCC(=O)NO
IC50 [1]: 4.01 µM | IC50 (Histone deacetylase 1 [2]): 82.6 µM

CC(C)(C)OC(=O)Nc1cccc(-c2csc(NC(=O)CCCCCCC(=O)NO)n2)c1
IC50 (Histone deacetylase 2 [3]): 0.021 µM | IC50 [4]: < 0.0002 µM | IC50 (Histone deacetylase 3 [5]): 0.002 µM | IC50 (Histone deacetylase 8 [6]): 2.58 µM | IC50 (Histone deacetylase 1 [7]): 0.004 µM | IC50 [8]: 0.006 µM

COC(=O)[C@H](Cc1ccccn1)NC(=O)CCCCCCCC(=O)NO
IC50 [1]: 4.06 µM | IC50 (Histone deacetylase 1 [2]): 67.3 µM

CCCCOc1ccc(CC(=O)NO)cc1 [BUFEXAMAC]
Kd (Histone deacetylase 8 [9]): 235 µM | Kd (Histone deacetylase 3 [10]; read-out: Kd(app)): 341 µM | Kd [11]: 12.3 µM | Kd (Histone deacetylase 2 [12]; read-out: Kd(app)): > 1000 µM | Kd ([1]; read-out: Kd(app)): 10.7 µM | Kd (Histone deacetylase 1 [2]; read-out: Kd(app)): > 1000 µM

O=C(CS)NCCCCCC(=O)Nc1cccc2cccnc12
IC50 (Histone deacetylase 5): 0.89 µM | IC50 (Histone deacetylase 3 [10]): 1.32 µM | IC50 (Histone deacetylase 2 [12]): 1.25 µM | IC50 [1]: 0.021 µM | IC50 (Histone deacetylase 7): 2.78 µM | IC50 (Histone deacetylase 11): 0.61 µM

Cc1onc(-c2ccccc2)c1C(=O)NCCCCCNC(=O)[C@@H](C)S
IC50 (Histone deacetylase 5): > 30 µM | IC50 (Histone deacetylase 2 [12]): > 30 µM | IC50 (Histone deacetylase 4): > 30 µM | IC50 [1]: 0.28 µM | IC50 (Histone deacetylase 1 [2]): > 30 µM

COC(=O)[C@H](Cc1ccccc1)NC(=O)CCCCCCCCC(=O)NO
IC50 (Histone deacetylase 6): 0.91 µM | IC50 (Histone deacetylase 1 [13]): 28.6 µM
